Data: patent publication US20210047693A1, “METHODS OF TREATING EXTRACHROMOSOMAL DNA EXPRESSING CANCERS” (THE REGENTS OF THE UNIVERSITY OF CALIFORNIA, priority 2017, published 2021)

Tests used:
Assay type in all cases: cell-based
PC3 cells = assay: 2D colony formation assay with crystal violet staining; details: PC3 cells compared with immortalized HEK293 cells
Procedure: FIGS. 12A-12C. […] FIG. 12A) Acute cell toxicity following 4 days treatment with 10 μM of indicated PARPi. Cell death measured by FACS analysis of Sytox Red staining in 2 normal cell types (astrocytes and HEK293), PC3 ecDNA-containing cells, and the paired GBM39 cells. FIG. 12B) 2D colony formation assay and crystal violet staining in immortalized HEK293 cells and PC3 cells after treatment with Olaparib or Rucaparib. FIG. 12C) Colony number quantification by Colony Area software plug-in for ImageJ from data in (FIG. 12B).

[1] = test system: isogenic paired GBM39 cells; assay: 3D soft agar assay; details: GBM39 isogenic pair
Text: (§1) FIGS. 13A-13B. […] FIG. 13A) 3D soft agar assay in isogenic paired GBM39 cells treated with Olaparib or Rucaparib. Quantification of colonies as measured by ColonyArea software (bottom). FIG. 13B) 3D soft agar assay in isogenic paired COLO320 cells (a colon cancer cell line) treated with Olaparib or Rucaparib. Quantification of colonies as measured by ColonyArea software (bottom).

[2] = test system: isogenic paired COLO320 cells; assay: 3D soft agar assay; details: COLO320 isogenic pair (colon cancer cell line)
Text: as §1

GBM39 cells = assay: Exosomal export of oncogenes amplified on ecDNA (FISH probe and PCR analysis of purified exosomes); details: exosomes purified from treated GBM39 cells
GBM cells [3] = assay: Loss of EGFR-containing ecDNA / EGFR oncogene DNA (number of ecDNAs per metaphase)
ecDNA = assay: Replication stress on ecDNA versus chromosomal DNA; details: vehicle versus erlotinib; ecDNA vs chromosomal DNA
GBM cells [4] = assay: Glucose levels in cells

Row | SMILES | 2D colony formation (colony number) (PC3 cells) | 3D soft agar colonies [1] | 3D soft agar colonies [2] | cellular level of oncogenes amplified on ecDNA, via exosomal export (GBM39 cells) | loss of ecDNA containing amplified EGFRvIII (number of ecDNAs per metaphase) (GBM cells [3]) | replication stress on ecDNA (frequency of pRPA(533) positive metaphase) (ecDNA) | glucose levels in GBM cells (GBM cells [4])
1 | O=C(c1cc(Cc2n[nH]c(=O)c3ccccc23)ccc1F)N1CCN(C(=O)C2CC2)CC1 [Olaparib, olaparib] | sensitive to PARP inhibition | sensitive to PARP inhibition | sensitive to PARP inhibition | – | – | – | –
2 | CNCc1ccc(-c2[nH]c3cc(F)cc4c3c2CCNC4=O)cc1 [Rucaparib, rucaparib] | sensitive to PARP inhibition | sensitive to PARP inhibition | sensitive to PARP inhibition | – | – | – | –
3 | C#Cc1cccc(Nc2ncnc3cc(OCCOC)c(OCCOC)cc23)c1 [erlotinib] | – | – | – | reduction of cellular level of oncogenes amplified on ecDNA | causes the loss of ecDNA containing amplified EGFRvIII | specifically causes replication stress on ecDNA, but not on chromosomal DNA | lowers glucose levels in GBM cells
